Entries after “also recorded” stand apart in the source; their conditions may differ.
Legend:
skin = experiment: Phage overlay assay on human tissue sections; assay type: binding
Excerpt: (§1) To test the tissue specificity of the IL-11 peptide mimic, a phage overlay assay was developed to evaluate receptor-ligand interactions in tissue sections, using the motif RRAGGS (SEQ ID NO:34) (Arap et al., Nature Med. 8:121-127, 2002).

normal prostate = experiment: Phage overlay assay on human tissue sections; assay type: binding
Excerpt: as §1

prostate = experiment: In vivo phage display in a human patient, tripeptide motif analysis; conditions: motifs in peptides isolated from prostate, compared with unselected phage library
Excerpt: A large-scale preparation of a CX7C (C, cysteine; X, any amino acid residue) phage display random peptide library was optimized to create the highest possible insert diversity (Pasqualini et al., 2000). The diversity of the library was about 2×10^8 and its final titer was about 10^12 transducing units (TU)/ml. For biopanning with human subjects, use of a large-scale phage display library (diversity about 2×10^8) is advantageous compared to the smaller scale libraries used in mouse studies. Short-term intravenous infusion of the phage library (a total dose of 10^14 phage TU suspended in 100 ml of saline) into the patient was followed by multiple representative tissue biopsies. Prostate and liver samples were obtained by needle biopsy under ultrasonographic guidance. Skin, fat tissue, and skeletal muscle samples were obtained by surgical excision. Bone marrow needle aspirates and core biopsies were also obtained. Histopathological diagnosis was determined by examination of frozen sections processed from tissues obtained at the bedside.
Triplicate samples were processed for host bacterial infection, phage recovery, and histopathological analysis. In brief, tissues were weighed, ground with a glass Dounce homogenizer, suspended in 1 ml of Dulbecco Modified Eagle's medium (DMEM) containing proteinase inhibitors (DMEM-prin; 1 mM PMSF, 20 μg/ml aprotinin, and 1 μg/ml leupeptin), vortexed, and washed three times with DMEM-prin. The human tissue homogenates were incubated with 1 ml of host bacteria (log phase E. coli K91kan; OD600˜2). Aliquots of the bacterial culture were plated onto Luria-Bertani agar plates containing 40 μg/ml tetracycline and 100 μg/ml of kanamycin. Plates were incubated overnight at 37° C. Bacterial colonies were processed for sequencing of phage inserts recovered from each tissue and from unselected phage library. Human samples were handled with universal blood and body fluid precautions.
A high-throughput character pattern recognition program (M.D. Anderson Cancer Center, Biostatistics, Houston, Tex.) was developed to automate the analysis of the peptide motifs derived from phage screenings. […]
In order to identify the motifs that were enriched in the screening, the count for each tripeptide motif within each tissue was compared with the count for that tripeptide motif within the unselected library. Starting from a CX7C peptide insert, counts were recorded for all overlapping interior tripeptide motifs, subject only to reflection and single-voting restrictions. […] The significance of association of a given allocation of counts was assessed by Fisher's exact test (one-tailed). […]

adipose tissue = experiment: Validation of adipose homing phage in vivo; set-up: species or system obese mice; conditions: mouse
Excerpt: A substractive phage display protocol (see Example 8 below) was used to isolate fat targeting peptides from a genetically obese mouse (Zhang et al., Nature, 372:425-432, 1994; Pelleymounter et al., Science 269:540-543, 1994). Phage that had been subjected to biopanning in obese mice were post-cleared in a normal mouse. The fat-targeting peptides isolated included TRNTGNI (SEQ ID NO:72), FDGQDRS (SEQ ID NO:73); WGPKRL (SEQ ID NO:74); WGESRL (SEQ ID NO:75); VMGSVTG (SEQ ID NO:76), KGGRAKD (SEQ ID NO:77), RGEVLWS (SEQ ID NO:78), TREVHRS (SEQ ID NO:79) and HGQGVRP (SEQ ID NO:80).
The fat homing clones selected were: FA—KGGRAKD (SEQ ID NO:77), FC—RGEVLWS (SEQ ID NO:78), FE—TREVHRS (SEQ ID NO:79) and FX—VMGSVTG (SEQ ID NO:76).

MDA-MB-435 cells = experiment: Enhancement of phage transduction by genotoxic agents or trans-complementation; assay type: cell-based, human; conditions: cells infected with targeted phage, 72 hours post-infection; drugs 10 μM
Experimental: Semi-confluent MDA-MB-435 cells were infected with 10^5 TU of phage per cell for 4 hours in serum free media, after which fresh medium supplemented with FCS was added (no phage were washed out or removed). In some experiments, a phage admixture of forward and reverse clones at 10^10 TU (forward/reverse molar ratio=1) was tested. Next, cells were incubated for 36 hours followed by the addition of genotoxic drugs (topotecan, 10 μM; cisplatin, 10 μM) or administration of UV radiation (15 J/m^2) with a cross-linker apparatus (UV Stratalinker Model 2400; Stratagene). At 72 hours post-infection, the cells were analyzed for transduction of a reporter gene (β-gal or GFP), and gene expression was normalized per cell number relative to controls.

IL-11Rα = molecular target: T1, IL-11Rα (Homo sapiens, UniProt Q14626); experiment: Ligand-receptor binding assay in vitro with immobilized receptor; conditions: for phage binding to immobilized receptor: recombinant IL-11Rα
T1 sequence (Q14626 23-422): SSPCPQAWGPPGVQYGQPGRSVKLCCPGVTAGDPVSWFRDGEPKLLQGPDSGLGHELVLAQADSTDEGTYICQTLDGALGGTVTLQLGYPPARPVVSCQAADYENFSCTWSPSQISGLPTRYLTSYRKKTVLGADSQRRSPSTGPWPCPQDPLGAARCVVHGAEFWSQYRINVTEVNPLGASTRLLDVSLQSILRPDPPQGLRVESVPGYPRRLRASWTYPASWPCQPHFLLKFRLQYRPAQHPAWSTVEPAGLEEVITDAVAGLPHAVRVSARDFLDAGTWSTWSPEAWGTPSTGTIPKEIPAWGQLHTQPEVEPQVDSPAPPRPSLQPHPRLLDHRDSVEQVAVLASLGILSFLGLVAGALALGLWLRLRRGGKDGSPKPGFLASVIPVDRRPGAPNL
Experimental: (§2) Recombinant IL-11Rα vascular endothelial growth factor receptor-1 (VEGFR1) or leptin receptor (OB—R) were incubated with phage displaying the […] (SEQ ID NO:37) peptide. VEGFR1 was used as a representative vascular receptor, while OB—R was used because it shares a co-receptor with IL-11Rα. An unrelated phage clone displaying the peptide […] (SEQ ID NO:38) and insertless fd-tet phage were used as controls. […] Binding of […] (SEQ ID NO:37)-phage to IL-11Rα was specific, since it was inhibited by the native IL-11 ligand in a concentration-dependent manner (not shown). […] These observations with normal prostate tissues were followed by an examination of the expression of IL-11Rα in tumors, as discussed in the present Example.

[1] = molecular target: vascular endothelial growth factor receptor-1 (VEGFR1) (Homo sapiens, UniProt P17948); experiment: as above; conditions: recombinant VEGFR1
Experimental: as §2

leptin receptor (OB—R) = leptin receptor (OB—R) (Homo sapiens, UniProt P48357); experiment: as above; conditions: recombinant OB—R
Experimental: as §2

[2] = system: serum antibodies of prostate cancer patients; experiment: ELISA of serum reactivity against GST-fusion peptides; assay type: binding, human
Experimental: A 20 μg/ml solution of purified GST or GST-fusion proteins in 0.1M NaHCO3 was used to coat maxisorp multi-well plates (Nalge Nunc International Corporation) and incubated overnight at 4° C. The plates were blocked in a blocking buffer (4% milk, 2% casein, and 0.05% Tween-20) for 3-4 hours. A series of […] dilutions (1:100-1:1200) of sera from prostate cancer patients or healthy individuals was added and incubated for 1.5 hours and then washed five times with washing buffer (1% milk, 0.5% casein, and 0.025% Tween-20), followed by incubation at 4° C. with anti-human alkaline phosphatase-conjugated antibodies (Gibco). The plates were then washed six times in washing buffer and developed using p-NPP (Sigma) as a substrate. An automatic ELISA plate reader (BIO-TEK instrument) recorded the results at OD405 nm.
Probabilities of survival for each group were estimated using the Kaplan-Meier method. A log-rank test was implemented in order to detect significant differences between the groups. Reactivity was considered to be detected if the ratio between GST-peptide and GST alone was greater or equal to two by the ELISA data. A Log-Rank test was used to determine statistical differences between groups. A statistical CART analysis (Classification And Regression Tree) was used to identify the best cut-off point for determining reactivity to GRP78. In this method, the censored survival data were transformed into a single uncensored data value (the so-called “null martingale residual”), which was used as input into a standard regression tree algorithm. A cut-off point of 0.95 was determined by this program

[3] = system: immunoglobulins from the serum of metastatic prostate cancer patients; experiment: Biopanning of CX6C phage library on IgGs from serum of prostate cancer patients A, B, C; assay type: binding, human; conditions: second and third rounds; patient A, B or C that yielded the peptide
Excerpt: Sera was selected from patients diagnosed with androgen-dependent and androgen-independent prostate cancer. A CX6C peptide library was screened against this pool of IgGs in a two-step procedure. First, the peptide library was pre-cleared against a pool of purified IgGs from normal serum samples using Protein G affinity chromatography. This step removed peptides from the phage display library that bound to immunoglobulins from patients without prostate cancer. Next, the pre-cleared peptide library was screened against the pool of purified IgGs from the serum of prostate cancer patients. This step selected peptides binding specifically to IgGs elicited against prostate cancer.
A 6-mer cyclic peptide (CX6C) phage display library was used for the biopanning. To select peptides specific to the serum antibodies of cancer patients, a pre-clearing stage was employed to remove non-specific peptides by pre-absorbing the peptide library onto purified IgGs from pooled normal serum (five healthy male individuals). The pre-cleared peptide library was screened onto the purified IgGs from the serum of prostate cancer patients. In brief, 10^9 transducing units (T.U.) of a CX6C cyclic peptide phage library were incubated with IgG antibodies from 50 μl of normal serum immobilized on 50 μl of protein G (Gibco BRL) for 1 hour at 4° C. This was followed by affinity selection on the immobilized IgG antibodies from prostate cancer patient serum for 2 hours at 4° C. Phage peptides specifically bound to IgGs elicited against prostate cancer were eluted with 100 μl of 0.1 M glycine buffer, pH 2.2, neutralized by the addition of 10 μl 1M Tris pH 9.0, and used to infect E. coli strain K91. Ten-fold serial dilutions of the infected solution were spread onto agar plates containing 40 μg/ml of tetracycline and grown overnight. Two hundred colonies were picked, amplified, and precipitated for a subsequent round of panning. A total of three rounds were performed. Individual phage clones were picked for PCR and the insert DNA was sequenced.

Chain of vascular endothelial growth factor receptor-1 (VEGFR1) (P17948 27-1338, species assumed): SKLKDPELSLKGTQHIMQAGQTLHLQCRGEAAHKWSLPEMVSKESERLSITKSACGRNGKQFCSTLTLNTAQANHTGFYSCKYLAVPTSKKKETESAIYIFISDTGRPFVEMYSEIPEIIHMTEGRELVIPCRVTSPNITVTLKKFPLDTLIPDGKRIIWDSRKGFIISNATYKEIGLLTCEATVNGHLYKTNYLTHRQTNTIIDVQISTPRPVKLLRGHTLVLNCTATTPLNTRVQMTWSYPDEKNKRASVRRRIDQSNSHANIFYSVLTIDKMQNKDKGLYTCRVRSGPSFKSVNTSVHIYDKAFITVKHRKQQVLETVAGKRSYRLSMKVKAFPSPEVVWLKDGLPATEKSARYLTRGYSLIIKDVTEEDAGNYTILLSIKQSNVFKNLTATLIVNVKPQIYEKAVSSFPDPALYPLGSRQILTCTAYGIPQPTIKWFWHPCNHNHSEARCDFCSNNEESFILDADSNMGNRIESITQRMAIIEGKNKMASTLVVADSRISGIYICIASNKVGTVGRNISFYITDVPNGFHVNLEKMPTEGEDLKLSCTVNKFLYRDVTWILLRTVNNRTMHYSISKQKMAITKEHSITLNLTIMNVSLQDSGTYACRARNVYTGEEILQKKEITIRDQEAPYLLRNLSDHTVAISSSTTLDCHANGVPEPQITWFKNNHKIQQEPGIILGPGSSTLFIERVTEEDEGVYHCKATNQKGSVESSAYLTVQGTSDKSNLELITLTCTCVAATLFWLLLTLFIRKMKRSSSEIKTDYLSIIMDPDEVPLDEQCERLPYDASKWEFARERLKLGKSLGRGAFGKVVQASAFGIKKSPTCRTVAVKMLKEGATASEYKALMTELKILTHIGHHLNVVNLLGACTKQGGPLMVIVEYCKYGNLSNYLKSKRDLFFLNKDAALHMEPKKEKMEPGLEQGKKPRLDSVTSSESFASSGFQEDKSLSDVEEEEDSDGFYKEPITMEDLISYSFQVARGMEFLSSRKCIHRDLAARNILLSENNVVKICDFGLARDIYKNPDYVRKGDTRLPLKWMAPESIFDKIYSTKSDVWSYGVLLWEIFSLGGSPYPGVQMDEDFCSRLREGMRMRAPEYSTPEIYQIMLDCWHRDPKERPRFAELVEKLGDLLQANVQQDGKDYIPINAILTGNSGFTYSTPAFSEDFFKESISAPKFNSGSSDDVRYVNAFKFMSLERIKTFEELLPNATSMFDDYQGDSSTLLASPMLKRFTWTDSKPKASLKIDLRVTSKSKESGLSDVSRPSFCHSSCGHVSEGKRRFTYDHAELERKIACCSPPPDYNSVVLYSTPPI
Chain of leptin receptor (OB—R) (P48357 22-1165, species assumed): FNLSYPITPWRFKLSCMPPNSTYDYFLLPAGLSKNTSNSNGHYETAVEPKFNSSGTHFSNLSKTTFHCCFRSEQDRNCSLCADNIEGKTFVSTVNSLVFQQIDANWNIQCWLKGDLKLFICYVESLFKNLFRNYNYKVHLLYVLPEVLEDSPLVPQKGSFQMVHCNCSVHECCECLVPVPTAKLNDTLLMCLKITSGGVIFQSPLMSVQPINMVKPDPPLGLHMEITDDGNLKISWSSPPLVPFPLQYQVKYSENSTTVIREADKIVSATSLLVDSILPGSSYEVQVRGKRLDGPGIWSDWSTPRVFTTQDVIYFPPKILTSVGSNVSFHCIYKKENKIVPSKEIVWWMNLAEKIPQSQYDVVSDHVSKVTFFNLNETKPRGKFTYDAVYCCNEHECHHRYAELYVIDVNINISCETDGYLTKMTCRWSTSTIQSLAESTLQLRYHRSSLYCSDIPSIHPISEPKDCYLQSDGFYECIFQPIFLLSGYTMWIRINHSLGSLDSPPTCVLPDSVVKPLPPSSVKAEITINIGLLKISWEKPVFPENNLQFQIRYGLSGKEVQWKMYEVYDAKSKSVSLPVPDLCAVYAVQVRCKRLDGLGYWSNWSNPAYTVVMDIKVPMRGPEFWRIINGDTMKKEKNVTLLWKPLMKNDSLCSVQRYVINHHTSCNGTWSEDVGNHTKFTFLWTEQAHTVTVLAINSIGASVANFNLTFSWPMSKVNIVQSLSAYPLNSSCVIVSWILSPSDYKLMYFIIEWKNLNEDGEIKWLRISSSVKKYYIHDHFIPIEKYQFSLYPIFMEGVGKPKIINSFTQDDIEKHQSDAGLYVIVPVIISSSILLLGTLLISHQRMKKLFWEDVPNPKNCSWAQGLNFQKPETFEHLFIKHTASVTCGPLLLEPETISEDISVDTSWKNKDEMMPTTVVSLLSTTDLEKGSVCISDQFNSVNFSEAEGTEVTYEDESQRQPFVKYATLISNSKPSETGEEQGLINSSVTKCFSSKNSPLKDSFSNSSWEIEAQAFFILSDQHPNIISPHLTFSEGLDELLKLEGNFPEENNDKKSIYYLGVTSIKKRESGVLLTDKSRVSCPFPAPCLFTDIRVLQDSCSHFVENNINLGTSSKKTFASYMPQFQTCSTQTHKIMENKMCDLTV

HGGVG [motif of a control phage that localized to skin tissue, reference compound]
phage binding to tissue section (skin): specifically recognized blood vessels in the skin
phage binding to tissue section (normal prostate): did not bind to prostate tissue

EGR [tripeptide motif isolated from prostate]
Motif Frequency (prostate): 1.0

RGEVLWS [FC]
homing to adipose tissue compared to control fd-tet phage (adipose tissue): some elevation of homing to adipose tissue

N.N.[Cl][Pt][Cl] [cisplatin]
reporter gene transduction relative to controls (MDA-MB-435 cells): several fold higher

AGG [tripeptide motif isolated from prostate]
Motif Frequency (prostate): 2.5

VMGSVTG [FX]
homing to adipose tissue compared to control fd-tet phage (adipose tissue): some elevation of homing to adipose tissue; also recorded: several orders of magnitude higher adipose localization

RRAGGS [prostate-targeting motif, IL-11 peptide mimic]
phage binding to tissue section (normal prostate): specifically bound to the endothelium and epithelium of normal prostate

CC[C@@]1(O)C(=O)OCc2c1cc1n(c2=O)Cc2cc3c(CN(C)C)c(O)ccc3nc2-1 [topotecan]
reporter gene transduction relative to controls (MDA-MB-435 cells): several fold higher

GVL [tripeptide motif isolated from prostate]
Motif Frequency (prostate): 2.3

KGGRAKD [FA]
homing to adipose tissue compared to control fd-tet phage (adipose tissue): some elevation of homing to adipose tissue

CGRRAGGSC
phage binding to immobilized receptor (IL-11Rα): significant amount of binding
phage binding to immobilized receptor [1]: Neither OB—R nor VEGFR1 showed binding
phage binding to immobilized receptor (leptin receptor (OB—R)): Neither OB—R nor VEGFR1 showed binding

TREVHRS [FE]
homing to adipose tissue compared to control fd-tet phage (adipose tissue): some elevation of homing to adipose tissue

GER [tripeptide motif isolated from prostate]
Motif Frequency (prostate): 0.9

CNVSDKSC
positive serum reactivity ([2]; 71 age-matched healthy men (control)): 7%
positive serum reactivity ([2]; metastatic androgen-independent prostate cancer): 76%
positive serum reactivity ([2]; organ-confined prostate cancer patients): 6%
positive serum reactivity ([2]; patients with androgen-dependent tumors): 29%
share of the clones analyzed [3]: 55%

CRVDFSKGC [reference compound]
phage binding to immobilized receptor (IL-11Rα): Neither of the control phage exhibited selective binding

B1: IL-11: native IL-11 ligand, cytokine (protein)
chain: PGPPPGPPRVSPDPRAELDSTVLLTRSLLADTRQLAAQLRDKFPADGDHNLDSLPTLAMSAGALGALQLPGVLTRLRADLLSYLRHVQWLRRAGGSSLKTLEPELGTLQARLDRLLRRLQLLMSRLALPQPPPDPPAPPLAPPSSAWGGIRAAHAILGGLHLTLDWAVRGLLLLKTRL
inhibition of CGRRAGGSC-phage binding to IL-11Rα (IL-11Rα; concentration of about 0.1 nM): ~100%

Source: US8507445B2, “Compositions and methods of use of targeting peptides for diagnosis and therapy of human cancer” (Board of Regents, The University of Texas System, priority 2002, dated 2013)
